Results published in patent US4902505A, “Chimeric peptides for neuropeptide delivery through the blood-brain barrier” (Alkermes, priority 1988, dated 1990).

Assays:
[1] = test system: isolated bovine brain microvessels; assay: Radioreceptor assay (uptake) using isolated bovine brain microvessels; assay type: cell-based; conditions: up to 60 minutes incubation at room temperature; FIG. 1
Description: Somatostatin was obtained from Peninsula Laboratories and tritiated by reductive methylation using ^3 H-sodium borohydride. […] The two compounds were coupled together using SPDP as described in Example 1. Bovine brain microvessels were isolated as described in Pardridge, et al., "Rapid Sequestration And Degradation Of Somatostatin Analogues By Isolated Brain Microvessels", (Journal of Neurochemistry, Vol. 44, No. 4, 1985, pp. 1178-1184).
^3 H-somatostatin was added to one set of microvessels for up to 60 minutes incubation at room temperature. In another set of incubations, the ^3 H-somatostatin-^125 I-insulin chimera was also added. […] The uptake of the free somatostatin likely represents nonspecific binding as described in the article mentioned above (Journal of Neurochemistry, Vol. 44, No. 4, 1985).
Previous studies have shown that the receptor-mediated endocytosis of peptides in the isolated brain microvessels is a reliable index of the in vivo blood-brain barrier receptor transport activity of peptides in vivo (see my previously-mentioned article in Endocrine Reviews, Vol. 7, No. 3, Aug. 1986).

blood-brain barrier = conditions: general statement, no test described; cited from earlier work

| Compound | change of uptake with time [1] | transport through the blood-brain barrier (blood-brain barrier) |
| --- | --- | --- |
| C[C@H](N)C(=O)NCC(=O)N[C@H]1CSSC[C@@H](C(=O)O)NC(=O)[C@H](CO)NC(=O)[C@H]([C@@H](C)O)NC(=O)[C@H](Cc2ccccc2)NC(=O)[C@H]([C@@H](C)O)NC(=O)[C@H](CCCCN)NC(=O)[C@H](Cc2c[nH]c3ccccc23)NC(=O)[C@H](Cc2ccccc2)NC(=O)[C@H](Cc2ccccc2)NC(=O)[C@H](CC(N)=O)NC(=O)[C@H](CCCCN)NC1=O [somatostatin] | no increase in time | not transported |
| cationized albumin: bovine serum albumin covalently coupled with hexamethylene-diamine | – | enters the brain rapidly |
